The structures appear in SMILES notation. “Also recorded” adds a separate entry of the source.

A short description of data set [1]: Acute oral toxicity, single administration, 14 days observation. The following applies: in vivo, 2% carboxymethylcellulose with 5% Tween 80. As for the experimental part:
Animal trials were performed with mice and male rats free from specific pathogenic organisms, subject to a preliminary water diet for 18 hours. All animals were kept under observation during 14 days after a single oral administration, in order to detect any eventuality of toxic after effects. The median lethal dose LD50 and its confidence limits were computed by the graphic method of J. T. Litchfield and F. Wilcoxon.
Oral administration was used throughout the experiments, with an aqueous solution of 2% carboxymethylcellulose treated with Tween®80 (Difco or ICI) at 5% as dispersing agent.

The test system of data set [2] is plasma melatonin. Put plainly: Plasma melatonin in psychiatric patients and control subjects after a single oral dose of 5-MOP. It is filed as in vivo, human. The following applies: for Delta Melatonin: 11:00 p.m. minus 8:00 p.m. baseline, 40 mg oral; for Melatonin (11:00 p.m.): 3 h after 40 mg oral 5-MOP, mean ± SEM. As for the experimental part:
FIG. 1 is a bar histogram which depicts the plasma melatonin levels in six diverse groups of human subjects before and after treatment with a single dose of 40 mg 5-methoxypsoralen (5-MOP) administered orally to each subject at 8:00 p.m. The subjects were maintained in total darkness or under weak illumination (without UV) for at least 9 hours after 5-MOP intake (corresponding to the sleep period). Blood samples were taken at 8:00 p.m. prior to 5-MOP administration and at 11:00 p.m. (see text for full description of experimental details). Plasma melatonin levels were evaluated by radioimmunology after extraction in diethylether using the method of Treifenaueret, Andres. Melatonin levels were established and compared with each group of subjects with similar age means using paired t-tests and between groups using unpaired t-tests. " -melatonin is defined as the difference between plasma melatonin levels (nmd/1) after 5-MOP uptake (3 hours after administration and =before 5-MOP administration; =after 5-MOP uptake. (p=significance of difference between the two values. )
The experiment was performed on six groups of human subjects.
Control groups 1, 2 and 3 comprised respectively:
Group 1: 13 elderly, sane subjects (7 women, 6 men).
Group 2: 13 middle-aged, sane subjects (6 women, 7 men).
Group 3: 13 young, sane subjects (6 women, 7 men).
These subjects had been contacted for welfare or minor nervous problems, but were free from major psychiatric disorders or organic illnesses. Most aged subjects were waiting for admission to nursing homes.
These elderly patients had no major cardiac, hepatic, renal, endocrineous or osseous disorders, nor any evolutionary pathology.
Group 5 comprised 13 subjects (8 women, 5 men) in an acute depressive phase, showing all symptoms of a major depressive disorder in the sense of DSM III.
Group 6 comprised 13 schizophrenic subjects (6 women, 7 men), according to DSM III criteria.
The diagnosis was established by means of a structured examination for affective disorders, schizophrenia and dementia, performed on each patient by two different psychiatrists. Any patient with a history of serious attendant illnesses, such as high blood pressure, diabetes, or other endocrineous pathologies, with distorted clinical or biological results, were excluded from the study. The patients received no medicaments 4 days prior to the experiment, except for 5 mg nitrazepam or 0.25 mg trazolam in the evening. All subjects participated voluntarily in the experiment and 5 were advised of its purpose. A single dose of 40 mg 5-methoxypsoralen (5-MOP) was given orally to all subjects at 8:00 p.m. To avoid any photosensitivity effects due to psoralen, patients were maintained in total darkness or under weak illumination (without UV) for at least 9 hours after 5-MOP intake (corresponding to the sleep period).
Blood samples were taken at 8:00 p.m., prior to 5-MOP administration, and again at 11:00 p.m., by means of a stationary catheter attached to the forearm at least twenty minutes before extraction of the first blood sample. Samples were immediately centrifugated at 4° C. and refrigerated at -20° C. until quantitative analysis. Plasma levels were evaluated by radioimmunology after extraction in diethylether, using the #method of Treifenaueret, Andres.
Melatonin levels were established and compared within each group by means of paired t-tests, and between groups by unpaired t-tests.
Because age could influence endocrinous responses, only groups with similar age means were compared in these experiments.
" melatonin" has been defined as the difference between melatonin levels after 5-MOP intake and the corresponding baseline values. The parameter "p" measures the significance of the difference between two values.

In data set [3] the test system is major depressive disorder. Put plainly: Clinical study of antidepressant effect (17 HDRS items), major depressive disorder. The format is in vivo, human. As for the experimental part:
Experimental verification of the clinical effects of 5-MOP on depressive patients was performed on 24 physically sane subjects (11 men and 13 women), suffering from a major depressive disorder.
Chosen patients afflicted with a major depressive disorder according to DSM III were given no treatment 4 days prior to the experiment, except for 5 mg nitrazepam in the evening.
The patients were divided into two groups. The first group was treated with a single daily dose of 40 mg 5-MOP during a week, administered orally at 9:00 p.m. The second group was given placebos, double blindly, under identical conditions.
To prevent any parallel effects due to the photosensitive properties of 5-MOP, patients were not exposed to ultraviolet (UV) radiation during nine hours following 5-MOP intake (corresponding to their sleep period).
After a week of treatment with 5-methoxypsoralen or placebos, clinical results were established for each patient group, and compared using the Wilcoxon test (W) within groups and the Mann-Whitney test (U) between groups.

The test system of data set [4] is plasma melatonin. The following applies: cited from earlier work.
In the next data set the test system is rabbits. Put plainly: Long-term toxicity, ingestive intake. The following applies: 300 mg/kg daily, 42 consecutive days. It is filed as in vivo. An excerpt:
The general, long-term toxicity of 5-MOP was also investigated in rabbits treated by ingestion and dermal application, with the following results: […]

As to `COc1c2occc2cc2ccc(=O)oc12` [8-methoxypsoralen, reference compound], the LD50 at 336 h is 875 mg/kg in data set [1] (mouse, male mice) and 4400 mg/kg in data set [1] (rat, male rats).

As to `COc1c2ccoc2cc2oc(=O)ccc12` [5-MOP, 4-methoxy-7H-furo[3,2-g][1]benzopyran-7-one], the LD50 at 336 h was 8100 mg/kg in data set [1] (mouse, male mice) and above 30000 mg/kg in data set [1] (rat, male rats). The “Delta Melatonin” value in the data set with plasma melatonin [2] (Control 1 (elderly sane)) worked out at 0.22 ± 0.11 nmd/1; in the data set with plasma melatonin [2] (Control 2 (middle-aged sane)) it was 0.20 ± 0.08 nmd/1; in the data set with plasma melatonin [2] (Control 3 (young sane)) it was 0.21 ± 0.09 nmd/1; in the data set with plasma melatonin [2] (dements, vs Control 1 t/p 2.4/0.025) it was 0.09 ± 0.06 nmd/1; with plasma melatonin [2] (depressives, vs Control 2 t/p 0.59/0.562), 0.17 ± 0.09 nmd/1; in the data set with plasma melatonin [2] (schizophrenics, vs Control 3 t/p 0.58/0.567), 0.15 ± 0.05 nmd/1. Also, the “Melatonin (11:00 p.m.)” value in the data set with plasma melatonin [2] (Control 1 (elderly sane, n=13), baseline 8:00 p.m. 0.19 ± 0.05) amounted to 0.42 ± 0.12 nmd/1; in the data set with plasma melatonin [2] (Control 2 (middle-aged sane, n=13), baseline 8:00 p.m. 0.16 ± 0.04), 0.36 ± 0.09 nmd/1; with plasma melatonin [2] (Control 3 (young sane, n=13), baseline 8:00 p.m. 0.16 ± 0.05), 0.36 ± 0.11 nmd/1; in the data set on plasma melatonin [2] (dements (n=13), baseline 8:00 p.m. 0.21 ± 0.06, t=3.34, p<0.01) it was 0.30 ± 0.08 nmd/1; in the data set with plasma melatonin [2] (depressives (n=13), baseline 8:00 p.m. 0.22 ± 0.06, t=2.29, p<0.05) it was 0.39 ± 0.15 nmd/1; in the data set on plasma melatonin [2] (schizophrenics (n=13), baseline 8:00 p.m. 0.21 ± 0.09, t=8.31, p<0.0001), 0.48 ± 0.09 nmd/1. Besides, in the data set with plasma melatonin [2] (at the dosage used (40 mg)), the “correlation between melatonin levels and absolute 5-MOP content” value is on record as “No correlation was observed”. Also, the “melatonin levels after 5-MOP intake (in words)” value with plasma melatonin [2] (control groups, vs before intake, t=4.59, p<0.01, t=4.18, p<0.001, t<3.92, p<0.001) is “substantially higher”. Besides, the “mean delta melatonin vs control group (in words)” value is recorded as “substantially lower” in the data set with plasma melatonin [2] (dements vs elderly control group, r=2.4, p<0.03) and “slightly lower” in the data set with plasma melatonin [2] (depressives vs control group, r=0.59, p<0.05, not significant). Further, the “plasma melatonin levels after administration (in words)” value with plasma melatonin [2] (psychiatric subjects) is listed as “significant rise; also recorded: significant increase”. In addition, the side-effects entry in the data set on plasma melatonin [2] (single 40 mg oral dose, all groups) is recorded as “No patient exhibited side-effects”. Moreover, in data set [3] (40 mg daily oral, one week), the side effects entry is “no patient treated with 5-MOP suffered side effects”. Moreover, in data set [3] (5-MOP composition compared with tricyclics), the “treatment period to obtain the same improvement in behavior” value is recorded as “one”. Further, the “HDRS J7” value in data set [3] (17 HDRS items, 40 mg daily oral 9:00 p.m., one week, n=12, HDRS J0 21.92 ± 8.21, W 3.5, p 0.01, placebo J7 21.16 ± 5.02) is 16.67 ± 7.99. The “improvement of depressive state (in words)” value in data set [3] (after a week of treatment, 40 mg daily oral, vs placebo) is listed as “significant improvement; also recorded: rapid improvement from depression; also recorded: significantly improves the depressive state”. In addition, the “effect without UVA irradiation” value in data set [3] (without irradiation of patients by UVA) is reported as “full effect”. The “retinal sensitivity to light” value in the data set with plasma melatonin [4] (humans, acute effect) is “increases”. Besides, the “plasma melatonin levels / melatonin secretion (in words)” value in the data set on plasma melatonin [4] (humans, sane subjects, earlier reports) is recorded as “increased melatonin secretion; also recorded: increases in plasma melatonin levels”. In the data set on plasma melatonin [4] (perfectly sane human subjects), the “effect on other endocrine hormones” value is “no discernible effect”. The “tolerance in toxicological tests (general condition, hematological, anatomicopathological, skin and eye, clinical chemolysis)” value with rabbits is “good tolerance”.

What is called LD50 is the dose expected to kill half of the subjects tested. A higher LD50 goes with lower toxicity.

These data come from US5023270A, “Antidepressant method of use” (priority 1988, dated 1991).
